From patent US20150141460A1, “Anti-inflammatory Compositions” (Cambridge Enterprise Limited, priority 2007, published 2015) come the findings set out here.

pEC50: −log10 of the molar value.

The test system of experiment [1] is SDF-1α induced migration of THP-1 cells. Nature of the experiment: ChemoTx transwell migration assay, SDF-1α induced migration of THP-1 cells. The experiment is classed as cell-based. The following applies: Homo sapiens; THP-1 cell line; maximal dose of chemoattractant; read-out: ED50 SDF-1α induced migration. The protocol: In principle, this assay consists of two chambers separated by a porous membrane. The chemoattractant is placed in the lower compartment and the cells are placed in the upper compartment. After incubation for a period at 37° C. the cells move towards the chemoattractant, and the number of cells in the lower compartment is proportional to the chemoattractant activity (relative to a series of controls).
Next, the chemoattractant solution to be placed in the lower compartment is prepared. For example, MCP-1 is diluted in GBSS+BSA to give a final concentration of 25 ng/ml. This is divided into two pots, as for the cell suspension. To one pot, the test compound is added to the same final concentration as was added to the cell suspension, while to the other pot an equal volume of GBSS+BSA plus vehicle as appropriate (e.g., not more than 1% DMSO) is added. Alternatively, other chemokines may be used (SDF-1α at 7.5 ng/ml; RANTES at 50 ng/ml; IL-8 at 10 ng/ml using neutrophils as the target cell population). […]
The impact of the test substance is calculated by comparing the chemoattractant-induced migration which occurred in the presence or absence of various concentrations of the test substance. Typically, the inhibition of migration is expressed as a percentage of the total chemoattractant-induced migration which was blocked by the presence of the compound. […]

The subject of experiment [2] is LPS-induced TNF-α production. Nature of the experiment: Sub-lethal LPS-induced endotoxemia in mice, serum TNF-α by ELISA. The experiment is classed as in vivo. The note with it: mice; doses above 1 μg/mouse; subcutaneous or oral route. As to the method:
FIGS. 5A-5E show representative dose response curves for the inhibition of LPS induced TNF-α production in vivo in a murine model of sub-lethal endotoxemia. In each experiment, groups of six mice received pre-treatment with the five compounds (FIG. 5A: (II); FIG. 5B: (III); FIG. 5C: (V); FIG. 5D: (I′) and FIG. 5E: (IV)) at various doses, via either the oral route (circles) or subcutaneous route (triangles). 30-60 mins later, animals were challenged with LPS via the intraperitoneal route, and serum was prepared from a terminal bleed 3 hours later. The level of TNF-α in the blood was measured by ELISA, and the degree of inhibition of LPS-induced TNF-α production (calculated as the concentration of TNF-α in mice exposed to LPS minus the concentration of TNF-α in mice which received a sham exposure to endotoxin-free PBS) is shown on the Y-axis of each graph as the mean of six animals, with whiskers representing SEMs. The concentration of TNF-α in mice receiving LPS but no BSCI treatment was typically 5,000 to 6,000 pg/ml on average (compared to <10 pg/ml in unchallenged mice). The ED50 was estimated by linear interpolation of the presented graphs. The X-axis of each graph represents the dose of each compound administered to each mouse in the group in units of mg (1E-07 to 1).
In this assay, mice are given a non-specific pro-inflammatory challenge using bacterial endotoxin (LPS), and the extent of the systemic inflammatory response (measured by serum levels of the central pro-inflammatory cytokine TNF-α, which is essentially absent from the blood under normal conditions, but is rapidly elevated in response to a wide range of inflammatory stimuli). We have selected this model even though it is not, itself, a particularly close model of any human inflammatory disease condition, but because TNF-α is known to be important in very many diseases (including rheumatoid arthritis, autoimmune disorders, Crohn's Disease, atherosclerosis, asthma and many more). Consequently, agents which suppress TNF-α production are already used clinically (e.g. Enbrel™ and other anti-TNF-α antibody products) to treat a wide range of such diseases.
Mice (in groups of 6) were pretreated with various doses of each compound, either by the subcutaneous route 30 mins prior to LPS challenge, or by the oral route (via gavage) 60 mins prior to LPS. The mice were then challenged with an intraperitoneal injection of 750 μg of bacterial LPS and sacrificed 3 hours later. Serum was prepared from a terminal bleed by cardiac puncture, and the concentration of TNF-α is determined by ELISA (R&D Systems). In each experiment, a group of 6 mice receive no LPS to act as a negative control, and a second group receive only LPS (with no candidate inhibitor). […]

As to `CC(C)(C)C(=O)N[C@H]1CCCNC1=O` [Compound (I′), (S)-3-(2′,2′-dimethylpropanoylamino)-tetrahydropyridin-2-one], the pEC50 in experiment [1] was 10.30. Further, the “suppression of LPS-induced TNF-α levels” value in experiment [2] is “more than 90%”.
